In PMC9655717, “New Molecules of Diterpene Origin with Inhibitory Properties toward α-Glucosidase” (International Journal of Molecular Sciences, 2022):

Key:
Experiment in all cases: Antimicrobial broth microdilution
Format in all cases: cell-based
[1] = test system: Bacillus subtilis (ATCC 6633); details: ATCC6633, B. subtilis
Protocol: (§1) Table S2. The result of antimicrobial tests of compounds 38, 45, 48 and 50.
(§2) Gram (+) strains Gram (-) strains Fungi
(§3) Compound Values (µg/ml) S. aureus B. L. S. E. P. C. subtilis fermentum enterica coli aeruginosa albican
(§4) The antimicrobial activity was determined by broth microdilution method as reported by. Broth dilution testing is one of the common methods used for determination of the MICs and IC50. The compounds are examined for visible bacterial growth as evidenced by turbidity. […]
(§5) S1.5. In vitro antimicrobial activity study of compounds 38, 45, 48 and 50 The Gram-positive bacteria: Bacillus subtilis (ATCC 6633), Lactobacillus fermentum (N4), Staphylococcus aureus (ATCC 13709); Gram -negative bacteria: Escherichia coli (ATCC 25922), Pseudomonas aeruginosa (ATCC 15442), Salmonella enterica; Yeast: Candida albicans (ATCC 10231) were obtained from American Type Culture Collection. The bacterial […]
(§6) Sabourand 2% dextrose broth, were purchased from Merck. […]
(§7) remaining at –80 0 C. Before assay, they were activated by culture medium and, adjusted the concentration to 5x10^5 CFU/mL. 10 μL of each concentration of each test […]
(§8) further incubated at 37 °C within 16-24h. The experiment was triplicated. Positive […]
(§9) medium without bacteria as a negative control. Ampicillin was used as a reference […]
(§10) inhibiting 50% the visible growth of the tested microorganisms. MIC, IC50 values are typically expressed as molar concentration. […]
(§11) treated with sample different concentrations on 96-well plates. Untreated cells represented the controls. […]
(§12) crystals are visible. Remove MTT and add DMSO solution (100 μL). The optical density […]
(§13) are evaluated to have cytotoxic activity.

[2] = test system: Candida albicans (ATCC 10231); details: ATCC10231, C. albican
Protocol: as §1, §2, §3, §4, §5, §6, §7, §8, §9, §10, §11, §12, §13

[3] = test system: Escherichia coli (ATCC 25922); details: ATCC25922, E. coli
Protocol: as §1, §2, §3, §4, §5, §6, §7, §8, §9, §10, §11, §12, §13

[4] = test system: Lactobacillus fermentum (N4); details: L. fermentum
Protocol: as §1, §2, §3, §4, §5, §6, §7, §8, §9, §10, §11, §12, §13

[5] = test system: Pseudomonas aeruginosa (ATCC 15442); details: ATCC15442, P. aeruginosa
Protocol: as §1, §2, §3, §4, §5, §6, §7, §8, §9, §10, §11, §12, §13

Salmonella enterica = details: S. enterica
Protocol: as §1, §2, §3, §4, §5, §6, §7, §8, §9, §10, §11, §12, §13

[6] = test system: Staphylococcus aureus (ATCC 13709); details: ATCC13709, S. aureus
Protocol: as §1, §2, §3, §4, §5, §6, §7, §8, §9, §10, §11, §12, §13

C#CCOC(=O)C1(C)CCCC2(C)C1CCC13C=C(C(C)C)C(CC12)c1c(O)cc2c(C(=O)OC)c(C)[nH]c2c13 (centres unmarked) [Compound 45, Methyl 7-propynyl 1-hydroxy-13-isopropyl-7,10a,2′-trimethyl-5,6,6b,7,8,9,10,10a,10b,11,12,13-dodecahydro-12,4b-ethenophenanthro [2,1-g]indole-7,1′-dicarboxylate]
> 256 µg/mL: IC50 [1] | MIC [1] | IC50 [2] | MIC [2] | IC50 [3] | MIC [3] | IC50 [4] | MIC [4] | IC50 [5] | MIC [5] | IC50 (Salmonella enterica) | MIC (Salmonella enterica) | IC50 [6] | MIC [6]
